The source of these data is patent US9034655B2, “Highly water-soluble, cationic luminescent labels” (SETA BioMedicals, LLC, priority 2006, dated 2015).

Data set [1] can be described thus: Absorption and emission maxima (spectral properties). The data set is classed as physicochemical. The text has this:
The synthesis of representative dyes is provided in the Examples Section. The structures, absorption and emission data as well as the luminescent lifetime in different solvents of specific dyes are given in Table 1.

Data set [2] can be described thus: Fluorescence (luminescent) lifetime of dyes and conjugates. The data set is classed as physicochemical. The settings on record: for luminescent lifetime (τ): solvent not stated. An excerpt: Typical assays based on the measurement of the fluorescence lifetime as a parameter include for example FRET (fluorescence resonance energy transfer) assays. The binding between a fluorescent donor labeled species (typically an antigen, or a ligand) and a fluorescent acceptor labeled species may be accompanied by a change in the intensity and/or the fluorescence lifetime. The lifetime can be measured using intensity-(Time corrlated single photon counting TCSPC) or phase-modulation-based methods (J. R. LAKOWICZ, PRINCIPLES OF FLUORESCENCE SPECTROSCOPY (2nd Ed. 1999)).

Data set [3] is described as follows: Fluorescence quantum yield (QY). The data set is classed as physicochemical.
For data set [4] the following is noted: cited from earlier work.

For the compound `CN1C[N+](C)(C)Cc2c1cc1c3c(cccc23)C(=O)N(c2ccccc2)C1=O` [Dye 6, 8,10,10-trimethyl-4,6-dioxo-5-phenyl-5,6,8,9,10,11-hexahydro-4H-isoquino[5,4-fg]quinazolin-10-ium hexafluorophosphate], the “λ(abs) [nm]” value in data set [1] (Ethanol) amounted to 414 nm; in data set [1] (Water) it was 426 nm. The figures for the “λ(fl) [nm]” value in data set [1] (Ethanol) and in data set [1] (Water) were 513 nm and 545 nm, respectively. For the same compound, the “Lifetime [ns]” value in data set [2] (Ethanol (Table 1)) is reported as 23.3 ns; in data set [2] (Water (Table 1)), 22.9 ns. Also, the “luminescent lifetime (τ)” value in data set [2] is on record as “around 23 ns”. For the same compound, the “(QY [%])” value in data set [3] (Ethanol (Table 1)) is 51%.

Turning to `CN1C[N+](C)(C)Cc2cc3c4c(cccc4c21)C(=O)N(c1ccc(C(=O)O)cc1)C3=O.[Cl-]` [Dye 3, 5-(4-carboxyphenyl)-9,9,11-trimethyl-4,6-dioxo-5,6,8,9,10,11-hexahydro-4H-isoquino[4,5-g,h]quinazolin-9-ium chloride], in data set [2] (Water), the lifetime in water turned out to be 9.3 ns. The “overall decrease in fluorescence lifetime” value in data set [2] (free dye in water vs IgG conjugate at D/P about 8) is on record as 10%. In addition, the “lifetime labeled to IgG” value is given as 8.9 ns in data set [2] (labeled to IgG at a D/P ratio of about 1) and 8.4 ns in data set [2] (labeled to IgG, D/P ratio of about 8).

In the case of `CN1C[N+](C)(C)Cc2cc3c4c(cccc4c21)C(=O)N(c1ccc(C(=O)ON2C(=O)CCC2=O)cc1)C3=O` [Dye 3-NHS], the entries for the “λ(abs) [nm]” value in data set [1] (Ethanol) and in data set [1] (Water) were 390 nm and 404 nm, respectively. For the same compound, the “λ(fl) [nm]” value in data set [1] (Ethanol) worked out at 500 nm; in data set [1] (Water), 518 nm. Besides, the results for the “Lifetime [ns]” value in data set [2] (Ethanol (Table 1)) and in data set [2] (Water (Table 1)) were 8.0 ns and 9.3 ns, respectively.

With `CN1C[N+](C)(C)Cc2cc3c4c(cccc4c21)C(=O)N(c1ccc(C(=O)O)cc1)C3=O.[Cl-]` [Dye 3a], in data set [1] (Water), the “λ(abs) [nm]” value was 405 nm and the “λ(fl) [nm]” value worked out at 515 nm. The “Lifetime [ns]” value in data set [2] (Water (Table 1)) is on record as 9.4 ns. For the same compound, the “(QY [%])” value in data set [3] (Water (Table 1)) is 72%.

For the compound `CN1C[N+](C)(C)Cc2c1cc1c3c(cccc23)C(=O)N(CCCCCC(=O)O)C1=O` [Dye 4a], the “luminescent lifetime (τ)” value in data set [2] is 26 ns.

Turning to fluorescein-isothiocyanate [FITC], in data set [4] (D/P ~ 8, Lakowicz et al. 2004), the “lifetime losses when covalently labeled to proteins” value is reported as around 40%. In addition, the “lifetime τ” value in data set [4] (free label) was 4.0 ns.

Take `CN1C[N+](C)(C)Cc2c1ccc1cc3ccccc3cc21` [Dye 13, 2,2,4-trimethyl-1,2,3,4-tetrahydronaphtho[2,3-f]quinazolin-2-ium hexafluorophosphate]: the “λ(abs) [nm]” value came out at 395 nm in data set [1] (Ethanol) and 398 nm in data set [1] (Water). Besides, the “λ(fl) [nm]” value is on record as 462 nm in data set [1] (Ethanol) and 481 nm in data set [1] (Water). Further, in data set [2] (Water), the lifetime in water is on record as 20 ns. In addition, the “Lifetime [ns]” value in data set [2] (Water (Table 1)) is listed as 20.9 ns. Besides, the results for the “(QY [%])” value in data set [3] (Ethanol (Table 1)) and in data set [3] (Water (Table 1)) were 30% and 40%, respectively.

As for `CCOC(=O)c1c(C)nn2c(=O)c3cccc4c5c(cc(c43)c12)C[N+](C)(C)CN5C.[Cl-]` [Dye 8], the results for the “λ(abs) [nm]” value in data set [1] (Ethanol), in data set [1] (Water) and in data set [1] (Water + BSA) were 436 nm, 449 nm and 449 nm, respectively. Moreover, the “λ(fl) [nm]” value in data set [1] (Ethanol) is listed as 584 nm; in data set [1] (Water), 600 nm; in data set [1] (Water + BSA), 600 nm. The “Lifetime [ns]” value in data set [2] (Ethanol (Table 1)) amounted to 7.8 ns; in data set [2] (Water (Table 1)) it was 5.7 ns; in data set [2] (Water + BSA) it was 6.1 ns. Further, the “(QY [%])” value is 44% in data set [3] (Ethanol (Table 1)) and 7% in data set [3] (Water (Table 1)).

By melting point is commonly meant the temperature, or range, at which the solid turns liquid. On to `CN1C[N+](C)(C)Cc2cc3c4c(cccc4c21)C(=O)N(c1ccccc1)C3=O.[Cl-]` [Dye 5, 9,9,11-trimethyl-4,6-dioxo-5-phenyl-5,6,8,9,10,11-hexahydro-4H-isoquino[4,5-g,h]quinazolin-9-ium chloride], for which the melting point is 235 °C. In data set [1] (DMF), the “λ(abs) [nm]” value was found to be 393 nm and the “λ(fl) [nm]” value was 500 nm. Besides, in data set [1] (Ethanol), the “λ(abs) [nm]” value is 393 nm and the “λ(fl) [nm]” value was 498 nm. Further, in data set [1] (Water), the “λ(abs) [nm]” value stood at 405 nm and the “λ(fl) [nm]” value came out at 515 nm. Further, the “Lifetime [ns]” value in data set [2] (DMF) is given as 9.0 ns. Further, the “Lifetime [ns]” value in data set [2] (Ethanol) is 8.5 ns. Also, the “Lifetime [ns]” value in data set [2] (Ethanol (Table 1)) amounted to 8.5 ns. Further, the “Lifetime [ns]” value in data set [2] (Water) is on record as 9.4 ns. Moreover, the “Lifetime [ns]” value in data set [2] (Water (Table 1)) is reported as 9.4 ns. Besides, in data set [3] (Ethanol), the “(QY [%])” value came out at 58%. For the same compound, in data set [3] (Ethanol (Table 1)), the “(QY [%])” value came to 58%. The “(QY [%])” value in data set [3] (Water) is 75%. Besides, in data set [3] (Water (Table 1)), the “(QY [%])” value is on record as 72%.

In the case of `CN(C)c1ccc2c3c(cccc13)C(=O)N(c1ccccc1)C2=O` [Dye 1, phenylimide of 4-dimethyl aminonaphthalic acid], in data set [2] (Ethanol), the “Lifetime [ns]” value was <<1 ns and the lifetime in ethanol is given as below 1 ns. For the same compound, in data set [2] (Water), the “lifetime in water compared with ethanol” value is given as “even further reduced”. For the same compound, the “(QY [%])” value in data set [3] (Ethanol) worked out at 0.5%. Also, in data set [3] (Water), the “Q.Y. in water compared with ethanol” value is “even further reduced”.
